Assay results reported in PubChem BioAssay AID2060513 (Molecular Pharmacology Branch, DTP, NCI, 2025).

System: 299254-011-R-J1-PDC complex spheroids viability
Test: Anticancer human tumor 299254-011-R-J1-PDC patient-derived melanoma cell line growth inhibition [GQUAD]
Settings: for IC50: curve of first compound; for viability, T/C: stronger effect = lower value
Summary of the method: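 Multi-cell-type spheroids of tumor cells with HUVEC and mesenchymal stem cells, treated with drug combinations. Concentrations descend in half-log steps from near clinical Cmax, or from 10 microM where Cmax is unknown; viability read-out.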

[1] = second compound 0.0316 µM, first compound 0.0316 µM
[2] = second compound 0.0316 µM, first compound 0.1 µM
[3] = second compound 0.0316 µM, first compound 0.316 µM
[4] = second compound 0.0316 µM, first compound 1 µM
[5] = second compound 0.0316 µM, first compound 3.16 µM
[6] = second compound 0.0316 µM, first compound 10 µM
[7] = second compound 0.1 µM, first compound 0.0316 µM
[8] = second compound 0.1 µM, first compound 0.1 µM
[9] = second compound 0.1 µM, first compound 0.316 µM
[10] = second compound 0.1 µM, first compound 1 µM
[11] = second compound 0.1 µM, first compound 3.16 µM
[12] = second compound 0.1 µM, first compound 10 µM
[13] = second compound 0.316 µM, first compound 0.0316 µM
[14] = second compound 0.316 µM, first compound 0.1 µM
[15] = second compound 0.316 µM, first compound 0.316 µM
[16] = second compound 0.316 µM, first compound 1 µM
[17] = second compound 0.316 µM, first compound 3.16 µM
[18] = second compound 0.316 µM, first compound 10 µM
[19] = second compound 1 µM, first compound 0.0316 µM
[20] = second compound 1 µM, first compound 0.1 µM
[21] = second compound 1 µM, first compound 0.316 µM
[22] = second compound 1 µM, first compound 1 µM
[23] = second compound 1 µM, first compound 3.16 µM
[24] = second compound 1 µM, first compound 10 µM
[25] = second compound 3.16 µM, first compound 0.0316 µM
[26] = second compound 3.16 µM, first compound 0.1 µM
[27] = second compound 3.16 µM, first compound 0.316 µM
[28] = second compound 3.16 µM, first compound 1 µM
[29] = second compound 3.16 µM, first compound 3.16 µM
[30] = second compound 3.16 µM, first compound 10 µM
[31] = second compound 10 µM, first compound 0.0316 µM
[32] = second compound 10 µM, first compound 0.1 µM
[33] = second compound 10 µM, first compound 0.316 µM
[34] = second compound 10 µM, first compound 1 µM
[35] = second compound 10 µM, first compound 3.16 µM
[36] = second compound 10 µM, first compound 10 µM
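Note: spheroids exposed to the agents for seven days before readout.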
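Throughout, for viability, T/C: percent viability relative to DMSO vehicle control wells = 100%.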

C=CCn1c(=O)c2cnc(Nc3ccc(N4CCN(C)CC4)cc3)nc2n1-c1cccc(C(C)(C)O)n1 + Cc1[nH]c2ccc(F)cc2c1-c1nc2c3cccnc3c3ncccc3c2[nH]1
IC50 (second compound 0.0316 µM): 1960 nM
IC50 (second compound 0.1 µM): 1460 nM
IC50 (second compound 0.316 µM): 2120 nM
IC50 (second compound 1 µM): 2070 nM
IC50 (second compound 3.16 µM): 1560 nM
IC50 (second compound 10 µM): 929 nM
viability, T/C [1]: 95.6%
viability, T/C [2]: 101%
viability, T/C [3]: 101%
viability, T/C [4]: 69.8%
viability, T/C [5]: 37.3%
viability, T/C [6]: 29.8%
viability, T/C [7]: 117%
viability, T/C [8]: 112%
viability, T/C [9]: 115%
viability, T/C [10]: 59.2%
viability, T/C [11]: 33.2%
viability, T/C [12]: 29.2%
viability, T/C [13]: 108%
viability, T/C [14]: 108%
viability, T/C [15]: 94%
viability, T/C [16]: 70.4%
viability, T/C [17]: 39.1%
viability, T/C [18]: 25%
viability, T/C [19]: 109%
viability, T/C [20]: 92.7%
viability, T/C [21]: 92.9%
viability, T/C [22]: 66.2%
viability, T/C [23]: 39.4%
viability, T/C [24]: 23.6%
viability, T/C [25]: 86.1%
viability, T/C [26]: 91%
viability, T/C [27]: 102%
viability, T/C [28]: 62.3%
viability, T/C [29]: 33%
viability, T/C [30]: 27.8%
viability, T/C [31]: 94.4%
viability, T/C [32]: 81.9%
viability, T/C [33]: 85.9%
viability, T/C [34]: 46.9%
viability, T/C [35]: 26.4%
viability, T/C [36]: 19.4%

CC(C)n1c(=O)n(C)c2cnc3cc(F)c(-c4ccc(OCCCN5CCCCC5)nc4)cc3c21 + Cc1cnc(CNC(=O)c2c(=O)c3ccc(N4CCCN(C)CC4)nc3n3c2sc2ccccc23)cn1
IC50 (second compound 0.0316 µM): > 10000 nM
IC50 (second compound 0.1 µM): 7380 nM
IC50 (second compound 0.316 µM): 2380 nM
IC50 (second compound 1 µM): 4090 nM
IC50 (second compound 3.16 µM): 1360 nM
IC50 (second compound 10 µM): < 31.6 nM
viability, T/C [1]: 94.4%
viability, T/C [2]: 79.1%
viability, T/C [3]: 85.8%
viability, T/C [4]: 73%
viability, T/C [5]: 69.7%
viability, T/C [6]: 51%
viability, T/C [7]: 96.9%
viability, T/C [8]: 96.4%
viability, T/C [9]: 77.3%
viability, T/C [10]: 87.8%
viability, T/C [11]: 63.1%
viability, T/C [12]: 44.4%
viability, T/C [13]: 77.4%
viability, T/C [14]: 87.2%
viability, T/C [15]: 65.2%
viability, T/C [16]: 55.7%
viability, T/C [17]: 53%
viability, T/C [18]: 39.5%
viability, T/C [19]: 56.4%
viability, T/C [20]: 56.6%
viability, T/C [21]: 66.9%
viability, T/C [22]: 54.7%
viability, T/C [23]: 58.1%
viability, T/C [24]: 22.4%
viability, T/C [25]: 55.4%
viability, T/C [26]: 78.3%
viability, T/C [27]: 64%
viability, T/C [28]: 53.5%
viability, T/C [29]: 35.6%
viability, T/C [30]: 13.6%
viability, T/C [31]: 0.37%
viability, T/C [32]: 12.4%
viability, T/C [33]: 12.2%
viability, T/C [34]: 3.21%
viability, T/C [35]: 0.36%
viability, T/C [36]: 0.31%

CC1COCCN1c1cc(-c2ccnn2C)c2ccnc(-c3ccn[nH]3)c2n1 (stereo not drawn) + Cc1cnc(CNC(=O)c2c(=O)c3ccc(N4CCCN(C)CC4)nc3n3c2sc2ccccc23)cn1
IC50 (second compound 0.0316 µM): 114 nM
IC50 (second compound 0.1 µM): 121 nM
IC50 (second compound 0.316 µM): < 31.6 nM
IC50 (second compound 1 µM): < 31.6 nM
IC50 (second compound 3.16 µM): < 31.6 nM
IC50 (second compound 10 µM): < 31.6 nM
viability, T/C [1]: 99.1%
viability, T/C [2]: 48.2%
viability, T/C [3]: 37.9%
viability, T/C [4]: 17.6%
viability, T/C [5]: 20%
viability, T/C [6]: 13.2%
viability, T/C [7]: 84.5%
viability, T/C [8]: 55.3%
viability, T/C [9]: 23.4%
viability, T/C [10]: 14.4%
viability, T/C [11]: 17.2%
viability, T/C [12]: 12.9%
viability, T/C [13]: 40.9%
viability, T/C [14]: 32.9%
viability, T/C [15]: 23.6%
viability, T/C [16]: 17.5%
viability, T/C [17]: 16.8%
viability, T/C [18]: 12.6%
viability, T/C [19]: 22%
viability, T/C [20]: 22.2%
viability, T/C [21]: 22.3%
viability, T/C [22]: 18.8%
viability, T/C [23]: 13%
viability, T/C [24]: 15.2%
viability, T/C [25]: 26.5%
viability, T/C [26]: 26.2%
viability, T/C [27]: 18%
viability, T/C [28]: 13.4%
viability, T/C [29]: 14.9%
viability, T/C [30]: 16.7%
viability, T/C [31]: 0.18%
viability, T/C [32]: 0.22%
viability, T/C [33]: 2.32%
viability, T/C [34]: 0.18%
viability, T/C [35]: 0.23%
viability, T/C [36]: 0.22%

COc1ccc([C@@H](O)c2cc(-c3ncnc4cc(N5CCOCC5)ccc34)c(F)cc2Cl)nn1 + Cc1cnc(CNC(=O)c2c(=O)c3ccc(N4CCCN(C)CC4)nc3n3c2sc2ccccc23)cn1
IC50 (second compound 0.0316 µM): 7510 nM
IC50 (second compound 0.1 µM): 6850 nM
IC50 (second compound 0.316 µM): 3150 nM
IC50 (second compound 1 µM): 2790 nM
IC50 (second compound 3.16 µM): 2710 nM
IC50 (second compound 10 µM): < 31.6 nM
viability, T/C [1]: 75.6%
viability, T/C [2]: 87.8%
viability, T/C [3]: 83.6%
viability, T/C [4]: 82%
viability, T/C [5]: 83.4%
viability, T/C [6]: 39.2%
viability, T/C [7]: 86.4%
viability, T/C [8]: 82.5%
viability, T/C [9]: 109%
viability, T/C [10]: 88.2%
viability, T/C [11]: 78.1%
viability, T/C [12]: 36%
viability, T/C [13]: 84%
viability, T/C [14]: 87.4%
viability, T/C [15]: 86.6%
viability, T/C [16]: 68.1%
viability, T/C [17]: 51.6%
viability, T/C [18]: 32.4%
viability, T/C [19]: 81.5%
viability, T/C [20]: 76.6%
viability, T/C [21]: 73%
viability, T/C [22]: 80%
viability, T/C [23]: 46.6%
viability, T/C [24]: 26.7%
viability, T/C [25]: 67.2%
viability, T/C [26]: 63.1%
viability, T/C [27]: 57.2%
viability, T/C [28]: 62.8%
viability, T/C [29]: 47.7%
viability, T/C [30]: 23.2%
viability, T/C [31]: 0.4%
viability, T/C [32]: 24.3%
viability, T/C [33]: 45.3%
viability, T/C [34]: 21.1%
viability, T/C [35]: 0.32%
viability, T/C [36]: 0.26%
